{
  "source": "patent US7098334B2",
  "about": "(Industrial Research Limited, priority 2002, dated 2006)",
  "key": {"mouse liver MTAP": {"biological_target": "T1, mouse liver MTAP (Mus musculus, UniProt Q9CQ65)", "T1 construct": "from tissue; host or cells: mouse liver protein extract", "T1 sequence (Q9CQ65 1-283)": "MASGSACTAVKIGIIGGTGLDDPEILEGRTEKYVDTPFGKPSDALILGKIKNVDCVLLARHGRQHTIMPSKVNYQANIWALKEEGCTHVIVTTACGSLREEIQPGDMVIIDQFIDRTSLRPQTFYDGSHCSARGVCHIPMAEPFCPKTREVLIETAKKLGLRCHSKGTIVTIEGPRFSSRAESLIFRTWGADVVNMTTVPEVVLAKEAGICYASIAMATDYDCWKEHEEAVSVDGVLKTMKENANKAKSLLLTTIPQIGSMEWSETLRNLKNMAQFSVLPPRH", "assay": "MTAP activity in liver extracts of treated mice", "assay_type": "in vivo", "experimental": "(§1) Following 30 to 60 min, blood was collected or mice were sacrificed and the liver removed for tissue analysis. MTAP activity in mouse blood was measured by the conversion of radioactive MTA to radioactive 5-methylthio-α-D-ribose 1-phosphate (MTR-1P). The assay mixture contained 50 mM phosphate buffer, 1 mM dithiothreitol, 26 μM [5′-^14C]MTA with specific radioactivity of 2 μCi/μmole, 0.5% triton X-100, and the desired amount of tissue sample, in a total volume of 100 μL. Reactions were stopped at various times by the addition of perchloric acid to decrease the pH to 2.0. The protein precipitate was removed by centrifugation, and the supernatant was neutralized to near pH 7 before being placed on a charcoal column. The column was eluted with buffer near pH 7. The product MTR-1P elutes, while unreacted [5′-^14C]MTA remains on the column. The amount of MTAP activity from control and treated mice is compared."}, "[1]": {"biological_target": "T2, MTAP activity in mouse blood (Mus musculus, UniProt Q9CQ65)", "T2 construct": "from tissue; host or cells: mouse blood", "T2 sequence (Q9CQ65 1-283)": "T1 sequence (Q9CQ65 1-283)", "assay": "MTAP activity in blood of treated mice", "assay_type": "in vivo", "details": "interperitoneal injection of 10 micromoles; blood sampled 30 min following injection", "experimental": "as §1, with “5′-Methylthio-Immucillin-A (5′-methylthio-ImmA) (10 micromoles) was administered to mice orally, by interperitoneal injection or by intravenous injection. Following” for “Following”"}, "[2]": {"details": "oral administration of 10 μmoles"}},
  "data": [
    {"smiles": "CSC[C@H]1N[C@@H](c2c[nH]c3c(N)ncnc23)C(O)[C@H]1O", "note": "(some centres unmarked) [5′-methylthio-ImmA]", "values": [
      {"measurement": "reduction of MTAP activity of liver extract", "setting": "mouse liver MTAP; intraperitoneal injection of 0.1 micromole", "result": 70, "unit": "%"},
      {"measurement": "reduction of MTAP activity of liver extract", "setting": "mouse liver MTAP; intraperitoneal injection of 1.0 micromole", "result": 77, "unit": "%"},
      {"measurement": "MTAP activity in liver extracts (in words)", "setting": "mouse liver MTAP; intravenous injection", "result": "no detectable MTAP activity"},
      {"measurement": "inhibition of liver MTAP", "setting": "mouse liver MTAP; intravenous injection", "result": "> 95", "unit": "%"},
      {"measurement": "inhibition of liver MTAP", "setting": "mouse liver MTAP; [2]", "result": 90, "unit": "%"},
      {"measurement": "oral availability to MTAP inside tissues (in words)", "setting": "mouse liver MTAP; [2]", "result": "orally available"},
      {"measurement": "rate of conversion of MTA to products by MTAP in extracts of liver", "setting": "mouse liver MTAP; oral administration of 10 μmoles, control 1.0", "result": "0.09 nMole/min/mg of liver protein extract"},
      {"measurement": "inhibition of MTAP in mouse blood compared to control blood", "setting": "[1]", "result": "> 90", "unit": "%"}
    ]}
  ]
}
